Laboratory results as given in US20230104281A1, “FLUORESCENT RHODAMINE DYES WITH ENHANCED CELL PERMEABILITY” (Max-Planck-Gesellschaft zur Foerderung der Wissenschaften …, priority 2020, published 2023).

Tests used:
[1] = Absorbance in 1,4-dioxane-water mixtures (D50, spirolactone-zwitterion equilibrium); format: physicochemical; conditions: 1,4-Dioxane-Water with constant 0.3% SDS additive; dielectric constant at which absorbance is halved
Protocol: The D50 values indicated herein are determined by measuring the respective absorbance of a sample (dye isomer or derivative or conjugate thereof), in varied water-1,4-dioxane mixtures with known dielectric constants according to an established method (e.g. Åkerlöf G, Short AO. J Am Chem Soc 1936, 58(7): 1241-1243). D50 is commonly used as numeric value for the evaluation of the equilibrium changes and represents a dielectric constant at which absorbance is halved (Butkevich A. N.; Mitronova G. Y.; Sidenstein. S. C.; Klocke J. L.; Kamin D.; Meineke D. N. H.; D'Este E.; Kraemer P. T.; Danzl J. G.; Belov V. N.; Hell S. W., Angew. Chem. Int. Ed. 2016, 55, 3290-3294).
The D50 values were calculated using the following equation:
(§1) where A0—absorbance at λmax at εr=0, λmax—the highest reached absorbance at λmax, d—dielectric constant of 1,4-dioxane-water mixture at a given point, Hill—Hill slope coefficient determining the steepness of a dose-response curve, D50—corresponds to d value that provokes half of the absorbance amplitude (λmax−A0).
Measurements of the absorbance changes in 1,4-dioxane-water mixtures were performed by pipetting 2 μL stock solutions of dyes or probes in DMSO into a 96 glass bottom well plate (11 wells per sample) made from propylene (Corning 3364). To the wells going from right to left 300 μL of 1,4-dioxane-water mixtures containing 100%, 90%, 80%, 70%, 60%, 50%, 40%, 30%, 20%, 10% or 0% 1,4-dioxane was added (if needed, mixtures with 0.3% SDS are used, with an exception in 100% dioxane due to solubility issues). After incubation for 1 hour at room temperature, absorption of solutions in each well was recorded from 320 nm to 850 nm with wavelength step size of 1 nm on a multiwell plate reader Spark® 20M (Tecan). The background absorption of the glass bottom plate was measured in wells containing only 1,4-dioxane-water mixture with similar amount of DMSO and subtracted from the spectra of the samples. […]
as §1, with “λmax.” for “λmax,”
The ability of the fluorophores to switch between spirolactone and zwitterion states can be characterized by measuring the absorbance in water-1,4-dioxane mixtures with known dielectric constant (Åkerlöf G, Short A O. J Am Chem Soc 1936, 58(7): 1241-1243). D50 is commonly used as numeric value for the evaluation of the equilibrium changes and represents a dielectric constant at which absorbance is halved.

tubulin = assay: Wide-field fluorescence microscopy of living primary fibroblasts stained with tubulin probes; format: cell-based, human
Protocol: Human primary dermal fibroblasts and HeLa cells were cultured in high-glucose DMEM (Life Technologies, Cat. No. 31053-028) supplemented with GlutaMAX-1 (Life Technologies, Cat. No. 35050-038) and 10% fetal bovine serum (FBS, Life Technologies, Cat. No. 10270-106) in a humidified 5% CO2 incubator at 37° C. The cells were split every 3-4 days or at confluence. Cells were seeded in glass bottom 12-well plates (MatTek Corporation, Cat. No. P12G-1.0-14-F).
Cells were stained with the fluorescent probes in DMEM (Thermo Fisher Scientific, Cat. No. 31053-028) supplemented with 10% FBS (Thermo Fisher Scientific, Cat. No. 10082139) at 37° C. and 5% CO2. […]
Actin/tubulin cytosolic signal was estimated using CellProfiler v.3.1.8. […] The background was subtracted from the original probe channel, and actin/tubulin staining was measured as mean pixel intensity per object in background-corrected probe channel. […]
As mentioned above, FIG. 3. illustrates the tubulin labelling of mammalian cells: a, structures of the tubulin probes. b, Wide-field fluorescence microscopy of living primary fibroblasts stained 100 nM TMR-LTX isomers for 1 h at 37° C. […] Hoechst staining is shown in cyan and all tubulin probes were shown in magenta. c, Quantification of fluorescence signal in the cytoplasm of living cells stained with tubulin probes. […]

HeLa cells = assay: Cell cycle analysis by imaging flow cytometry and EC50 determination (subG1 cells, cytotoxicity of tubulin probes); format: cell-based; conditions: 24 h incubation at 37° C. in growth media; compared with parent compound larotaxel
Protocol: HeLa cells were grown in 6-well plates (^˜250.000 cells per well) for 24 h in the presence of the fluorescent probe in variable concentrations. The probes were dissolved in DMSO at 500-2000-fold stock concentration and added to the media of cultured cells at 500-2000-fold dilution accordingly. In parallel, the appropriate DMSO control samples were prepared by adding corresponding amount of DMSO volume to the separate well. Cells were processed according to the NucleoCounter® NC-3000™ two-step cell cycle analysis protocol for cells attached to T-flasks, cell culture plates or micro-carriers. […] Cells were counted on a NucleoCounter® NC-3000™ in NC-Slide A2™ slides (Chemometec, Cat. No. 942-0001) loaded with ˜30 μl of each of the cell suspensions into the chambers of the slide. Each time, ^˜10.000 cells in total were measured, and the obtained cell cycle histograms were analysed with ChemoMetec NucleoView NC-3000 software, version 2.1.25.8. […] The EC50 values were determined by plotting the percentage of cells in subG1 phase and fitting the curve in GraphPad Prism 6 to the following function: […]
As mentioned above, FIG. 3. illustrates the tubulin labelling of mammalian cells: a, structures of the tubulin probes. b, Wide-field fluorescence microscopy of living primary fibroblasts stained 100 nM TMR-LTX isomers for 1 h at 37° C. […]

SMILES | D50 [1] | membrane permeability (tubulin; living cells, 100 nM probe, 1 h at 37° C., compared to 5′- and 6′-isomers) | tubulin labelling specificity (tubulin; mammalian cells, simple incubation with probe) | EC50, accumulation of subG1 phase cells (cytotoxicity) (HeLa cells)
CNc1ccc2c(c1)C(C)(C)c1cc(NC)ccc1C21OC(=O)c2c(C(=O)NCCCCCCCC(=O)N[C@@H](c3ccccc3)[C@@H](O)C(=O)O[C@H]3C[C@@]4(O)[C@@H](OC(=O)c5ccccc5)[C@@H]5[C@]6(OC(C)=O)CO[C@@H]6C[C@@H]6C[C@@]65C(=O)[C@H](OC(C)=O)C(=C3C)C4(C)C)cccc21 [580CP-LTX 4′-isomer] | 62 ± 1 | – | – | –
CO[C@H]1C(=O)[C@]2(C)[C@@H](OC)C[C@H]3OC[C@@]3(OC(C)=O)[C@H]2[C@H](OC(=O)c2ccccc2)[C@]2(O)C[C@H](OC(=O)[C@H](O)[C@@H](NC(=O)CCCCCCCNC(=O)c3cccc4c3C(=O)OC43c4ccc(N(C)C)cc4C(C)(C)c4cc(N(C)C)ccc43)c3ccccc3)C(C)=C1C2(C)C [610CP-CTX 4′-isomer] | 65 ± 2 | – | – | –
CO[C@H]1C(=O)[C@]2(C)[C@@H](OC)C[C@H]3OC[C@@]3(OC(C)=O)[C@H]2[C@H](OC(=O)c2ccccc2)[C@]2(O)C[C@H](OC(=O)[C@H](O)[C@@H](NC(=O)CCCCCCCNC(=O)c3cccc4c3C(=O)OC43c4ccc(N(C)C)cc4[Si](C)(C)c4cc(N(C)C)ccc43)c3ccccc3)C(C)=C1C2(C)C [SiR-CTX 4′-isomer] | >80 | – | – | –
CC(=O)O[C@H]1C(=O)[C@]23C[C@H]2C[C@H]2OC[C@@]2(OC(C)=O)[C@H]3[C@H](OC(=O)c2ccccc2)[C@]2(O)C[C@H](OC(=O)[C@H](O)[C@@H](NC(=O)CCCCCCCNC(=O)c3cccc4c3C(=O)OC43c4ccc(N(C)C)cc4Oc4cc(N(C)C)ccc43)c3ccccc3)C(C)=C1C2(C)C [TMR-LTX 4′-isomer] | 26.5 ± 0.5 | excellent membrane permeability | highly specific tubulin labelling | almost as efficiently as parent compound
